Data as given in patent US11083725B2 (priority 2014, dated 2021).

Tested on: NHBE cells
Test: Biolog metabolic array: substrate use by NHBE cells with or without CA09 infection
Format: cell-based, human
Details: for Substrate use, 590 nm absorbance normalized to zero hour, 0 hr: Biolog PMM2, 0 hr; for Substrate use, 590 nm absorbance normalized to zero hour, 1 hr: Biolog PMM2, 1 hr; for Substrate use, 590 nm absorbance normalized to zero hour, 5 hr: Biolog PMM2, 5 hr; for Substrate use, 590 nm absorbance normalized to zero hour, 7 hr: Biolog PMM2, 7 hr
[1] = Control (uninfected) NHBE cells
[2] = Virus (CA09-infected NHBE cells, MOI 1)
[3] = Virus: CA09-infected NHBE cells, MOI 1, Biolog PMM2
[4] = Virus (CA09-infected, MOI 1) NHBE cells

| Structure (SMILES) | 590 nm absorbance normalized to zero hour (substrate use), 0 hr [1] | 590 nm absorbance normalized to zero hour (substrate use), 1 hr [1] | 590 nm absorbance normalized to zero hour (substrate use), 2 hr [1] | 590 nm absorbance normalized to zero hour (substrate use), 3 hr [1] | 590 nm absorbance normalized to zero hour (substrate use), 4 hr [1] | 590 nm absorbance normalized to zero hour (substrate use), 6 hr [1] | 590 nm absorbance normalized to zero hour (substrate use), 8 hr [1] | 590 nm absorbance normalized to zero hour (substrate use), 9 hr [1] | 590 nm absorbance normalized to zero hour (substrate use), 10 hr [1] | 590 nm absorbance normalized to zero hour (substrate use), 11 hr [1] | Substrate use, 590 nm absorbance normalized to zero hour, 0 hr [1] | Substrate use, 590 nm absorbance normalized to zero hour, 1 hr [1] | Substrate use, 590 nm absorbance normalized to zero hour, 5 hr [1] | Substrate use, 590 nm absorbance normalized to zero hour, 7 hr [1] | 590 nm absorbance normalized to zero hour (substrate use), 0 hr [3] | 590 nm absorbance normalized to zero hour (substrate use), 1 hr [3] | 590 nm absorbance normalized to zero hour (substrate use), 2 hr [3] | 590 nm absorbance normalized to zero hour (substrate use), 3 hr [3] | 590 nm absorbance normalized to zero hour (substrate use), 4 hr [3] | 590 nm absorbance normalized to zero hour (substrate use), 5 hr [3] | also measured |
| --- | --- | --- | --- | --- | --- | --- | --- | --- | --- | --- | --- | --- | --- | --- | --- | --- | --- | --- | --- | --- | --- |
| CCC(=O)C(=O)O [a-Keto-Butyric Acid] | 1.00 | 1.10 | 1.17 | 1.24 | 1.25 | 1.49 | 1.34 | 1.36 | 1.37 | 1.39 | 1.00 | 1.10 | 1.28 | 1.33 | 1.00 | 0.28 | 0.29 | 0.30 | 0.31 | 0.32 | 590 nm absorbance normalized to zero hour (substrate use), 0 hr [2]: 1.00; 590 nm absorbance normalized to zero hour (substrate use), 1 hr [2]: 0.28; 590 nm absorbance normalized to zero hour (substrate use), 2 hr [2]: 0.29; 590 nm absorbance normalized to zero hour (substrate use), 3 hr [2]: 0.30; 590 nm absorbance normalized to zero hour (substrate use), 4 hr [2]: 0.31; 590 nm absorbance normalized to zero hour (substrate use), 5 hr [2]: 0.32; 590 nm absorbance normalized to zero hour (substrate use), 6 hr [2]: 0.32; 590 nm absorbance normalized to zero hour (substrate use), 7 hr [2]: 0.33; 590 nm absorbance normalized to zero hour (substrate use), 8 hr [2]: 0.33; 590 nm absorbance normalized to zero hour (substrate use), 9 hr [2]: 0.34; 590 nm absorbance normalized to zero hour (substrate use), 10 hr [2]: 0.34; 590 nm absorbance normalized to zero hour (substrate use), 11 hr [2]: 0.34; 590 nm absorbance normalized to zero hour (substrate use), 6 hr [3]: 0.32; 590 nm absorbance normalized to zero hour (substrate use), 7 hr [3]: 0.33; 590 nm absorbance normalized to zero hour (substrate use), 8 hr [3]: 0.33; 590 nm absorbance normalized to zero hour (substrate use), 9 hr [3]: 0.34; 590 nm absorbance normalized to zero hour (substrate use), 10 hr [3]: 0.34; 590 nm absorbance normalized to zero hour (substrate use), 11 hr [3]: 0.34 |
| O=C(O)CCC(=O)C(=O)O [a-Keto-Glutaric Acid] | 1.00 | 1.29 | 1.54 | 1.40 | 1.45 | 1.98 | 1.69 | 1.80 | 1.93 | 2.00 | 1.00 | 1.29 | 1.52 | 1.61 | 1.00 | 0.28 | 0.37 | 0.45 | 0.46 | 0.51 | 590 nm absorbance normalized to zero hour (substrate use), 0 hr [2]: 1.00; 590 nm absorbance normalized to zero hour (substrate use), 1 hr [2]: 0.28; 590 nm absorbance normalized to zero hour (substrate use), 2 hr [2]: 0.37; 590 nm absorbance normalized to zero hour (substrate use), 3 hr [2]: 0.45; 590 nm absorbance normalized to zero hour (substrate use), 4 hr [2]: 0.46; 590 nm absorbance normalized to zero hour (substrate use), 5 hr [2]: 0.51; 590 nm absorbance normalized to zero hour (substrate use), 6 hr [2]: 0.54; 590 nm absorbance normalized to zero hour (substrate use), 7 hr [2]: 0.56; 590 nm absorbance normalized to zero hour (substrate use), 8 hr [2]: 0.58; 590 nm absorbance normalized to zero hour (substrate use), 9 hr [2]: 0.64; 590 nm absorbance normalized to zero hour (substrate use), 10 hr [2]: 0.64; 590 nm absorbance normalized to zero hour (substrate use), 11 hr [2]: 0.69; 590 nm absorbance normalized to zero hour (substrate use), 6 hr [3]: 0.54; 590 nm absorbance normalized to zero hour (substrate use), 7 hr [3]: 0.56; 590 nm absorbance normalized to zero hour (substrate use), 8 hr [3]: 0.58; 590 nm absorbance normalized to zero hour (substrate use), 9 hr [3]: 0.64; 590 nm absorbance normalized to zero hour (substrate use), 10 hr [3]: 0.64; 590 nm absorbance normalized to zero hour (substrate use), 11 hr [3]: 0.69 |
| CO[C@H]1O[C@H](CO)[C@H](O)[C@H](O)[C@H]1O [a-Methyl-D-Galactoside] | 1.00 | 1.13 | 0.68 | 0.80 | 0.84 | 1.20 | 1.15 | 1.29 | 1.42 | 1.06 | 1.00 | 1.13 | 1.01 | 1.15 | 1.00 | 2.91 | 1.88 | 1.16 | 1.24 | 1.43 | 590 nm absorbance normalized to zero hour (substrate use), 0 hr [4]: 1.00; 590 nm absorbance normalized to zero hour (substrate use), 1 hr [4]: 2.91; 590 nm absorbance normalized to zero hour (substrate use), 2 hr [4]: 1.88; 590 nm absorbance normalized to zero hour (substrate use), 3 hr [4]: 1.16; 590 nm absorbance normalized to zero hour (substrate use), 4 hr [4]: 1.24; 590 nm absorbance normalized to zero hour (substrate use), 5 hr [4]: 1.43; 590 nm absorbance normalized to zero hour (substrate use), 6 hr [4]: 1.51; 590 nm absorbance normalized to zero hour (substrate use), 7 hr [4]: 1.59; 590 nm absorbance normalized to zero hour (substrate use), 8 hr [4]: 1.67; 590 nm absorbance normalized to zero hour (substrate use), 9 hr [4]: 1.83; 590 nm absorbance normalized to zero hour (substrate use), 10 hr [4]: 1.89; 590 nm absorbance normalized to zero hour (substrate use), 11 hr [4]: 2.05; 590 nm absorbance normalized to zero hour (substrate use), 6 hr [3]: 1.51; 590 nm absorbance normalized to zero hour (substrate use), 7 hr [3]: 1.59; 590 nm absorbance normalized to zero hour (substrate use), 8 hr [3]: 1.67; 590 nm absorbance normalized to zero hour (substrate use), 9 hr [3]: 1.83; 590 nm absorbance normalized to zero hour (substrate use), 10 hr [3]: 1.89; 590 nm absorbance normalized to zero hour (substrate use), 11 hr [3]: 2.05 |
